Reference: US20120071475A1, “UREA DERIVATIVES HAVING PI3K-INHIBITING ACTIVITY” (SHIONOGI & CO., LTD., priority 2009, published 2012)

Tests used:
hERG channel (IKr) = molecular target: T1, hERG channel (IKr) (Homo sapiens, UniProt Q12809); experiment: hERG test (whole-cell patch-clamp, IKr in HEK293 cells); assay type: cell-based; conditions: human, HEK293 cells expressing hERG channel, pH 7.4, inhibition of maximum tail current (IKr), compound 1 μM
T1 construct: expressed in transfected cells; host or cells: HEK293
Excerpt: For the purpose of risk evaluation of QT interval extension of electrocardiogram, the activity on delayed rectification K^+ current (IKr), which plays an important role in a cardiac ventricle repolarization process, was examined using the HEK293 cell that was made to express human ether-a-go-go related gene (hERG) channel.
Using an automatic patch-clamp system (PatchXpress 7000A, Axon Instruments Inc.), by a whole-cell patch-clamp method, after the cell was maintained at a membrane potential of −80 mV, IKr induced upon applying depolarizing stimulation of +50 mV for 2 seconds and further applying repolarizing stimulation of −50 mV for 2 seconds was recorded. After generated electric current became stable, a test substance dissolved at an intended concentration in extracellular fluid (137 mmol/L NaCl, 4 mmol/L KCl, 1.8 mmol/L CaCl2.2H2O, 1 mmol/L MgCl2.6H2O, 10 mmol/L glucose, 10 mmol/L HEPES (4-(2-hydroxyethyl)-1-piperazineethanesulfonic acid), pH=7.4) was applied to the cell for 10 minutes under room temperature condition. From the obtained IKr, the absolute value of the maximum tail current was measured using analysis software (DataXpress ver. 1, Molecular Devices Corporation) and the value of the electric current in a maintained membrane potential as baseline. Moreover, an inhibition ratio for the maximum tail current prior to the application of the test substance was calculated and then compared with a group of media-application (0.1% dimethylsulfoxide solution) to evaluate influence of the test substance on IKr.

PI3Kγ = PI3Kγ (Homo sapiens, UniProt P48736); experiment: PI3Kγ inhibitory activity (PI3-kinase HTRF assay, inhibition ratio); assay type: biochemical; conditions: 0.5 h, compound at 10 μmol/L; read-out: PI3Kg Inhibition Ratio % (10 μM)
Method: For each compound synthesized in the above Examples, PI3Kγ inhibitory activity was measured.
The PI3Kγ inhibitory activity of a compound was evaluated using PI3-kinase HTRF™ assay (Millipore) according to the following procedure:
To each well of a testing plate, 5 μL of a compound solution containing 10% DMSO (40 μmol/L as the concentration of the compound), 5 μL of a substrate solution (40 μmol/L phosphatidylinositol (4,5)-bisphosphate, 20 mmol/L MgCl2, 10 mmol/L DTT), and 5 μL of an enzyme solution (80 μg/mL PI-3 kinase y, 10 mmol/L MgCl2, 5 mmol/L DTT) were added, and then allowed to stand for 10 minutes.
Then, 5 μL of a reaction solution (40 μmol/L ATP, 10 mmol/L MgCl2, 5 mmol/L DTT) was added thereto. After reacting for 30 minutes at room temperature, 5 μL of a solution containing EDTA and biotinylated phosphatidylinositol (3,4,5)-triphosphate was added to quench the reaction.
5 μL of a detection reagent containing a europium-labeled anti-GST antibody, the GST-tagged PH domain, and allophycocyanin-labeled streptavidin was added thereto. After 18 hours, HTRF (excitation wavelength: 330 nm, measured wavelengths: 620 nm and 665 nm) was measured.
HTRF ratio was defined as the value obtained by dividing the amount of fluorescence obtained at the measured wavelength 665 nm by the amount of fluorescence obtained at 620 nm. The HTRF ratio in the absence of a compound was defined as 100% activity and the HTRF ratio in the absence of PI-3 kinase y was defined as 0% activity to calculate an inhibition ratio, which was defined as the PI3Kγ inhibitory activity of a compound at 10 μmol/L.

CYP3A4 = molecular target: T2, CYP3A4 (Homo sapiens, UniProt P08684); experiment: CYP3A4 fluorescence MBI test; assay type: in vitro ADME; conditions: difference in IC50 with 0 or 30 minutes pre-reaction; CYP3A4 expressed in E. coli, substrate 7-BFC
T2 construct: host or cells: E. coli
Method: The CYP3A4 fluorescence MBI test is a test to examine the enhancement of CYP3A4 inhibition of a compound by a metabolic reaction. The test was performed using as an index, a reaction to produce a metabolite 7-hydroxytrifluoromethylcoumarin (HFC) which emits fluorescence, in which CYP3A4 expressed in E. coli was used as an enzyme and 7-benzyloxytrifluoromethylcoumarin (7-BFC) is debenzylated by CYP3A4 enzyme.
The reaction conditions are as follows: substrate: 5.6 μmol/L 7-BFC; pre-reaction time; 0 or 30 minutes; reaction time: 15 minutes; reaction temperature: 25° C. (room temperature); content of CYP3A4 (an enzyme expressed in E. coli): […] at the time of a pre-reaction and […] (when diluted 10 times) at the time of a reaction; the concentrations of a test drug: 0.625, 1.25, 2.5, 5, 10, and 20 μmol/L (6 points).
In a 96-well plate, an enzyme solution and a test drug solution were added as a pre-reaction solution into K-Pi buffer solution (pH 7.4) in the aforementioned ratio. A portion thereof was transferred to another 96-well plate to be diluted ten times with a substrate and a K-Pi buffer solution. A coenzyme, NADPH, was then added to start a reaction, which is the index (this is without a pre-reaction). After reacting for a predetermined time, 4:1 of acetonitrile: 0.5 mol/L Tris (trishydroxyaminomethane) was added to quench the reaction. To the remaining pre-reaction solution, NADPH was added to start a pre-reaction (this is with a pre-reaction). After pre-reacting for a predetermined time, a portion thereof was transferred to another plate to be diluted ten times with a substrate and K-Pi buffer solution, and thereby the index reaction is started. After reacting for a predetermined time, 4:1 of acetonitrile:0.5 mol/L Tris (trishydroxyaminomethane) was added to quench the reaction. For each plate in which the index reaction was carried out, the fluorescence value of a metabolite 7-HFC was measured with a fluorescent plate reader (Ex=420 nm, Em=535 nm).
The case wherein only DMSO (a solvent which dissolved a drug) was added to a reaction system was defined as a control (100%). When a test drug solution was added, the remaining activity (%) at each concentration was calculated, and then IC50 was calculated with a concentration and an inhibition ratio by an inverse estimation using a logistic model. When the difference in IC50 value is 5 μmol/L or more, the compound is shown as (+). When 3 μmol/L or less, the compound is shown as (−).

[1] = Metabolic stability test (pooled human liver microsome); assay type: in vitro ADME; conditions: percentage of test compound remained after 30 minutes, pooled human liver microsome 0.5 mg protein/mL, 1 mmol/L NADPH, 37° C., compound 0.5 μM
Method: After a subject compound was reacted for a certain time using a pooled human liver microsome commercially available, a reacted sample and an unreacted sample are compared to calculate a survival ratio, and then the degree of metabolism in the liver was evaluated.
0.2 mL of a buffer solution (50 mmol/L of Tris-HCl in pH 7.4, 150 mmol/L of potassium chloride, and 10 mmol/L of magnesium chloride) containing a human liver microsome of 0.5 mg protein/mL was reacted in the presence of 1 mmol/L NADPH at 37° C. for 0 or 30 minutes (oxidative reaction). After reacting, 50 μL of the reaction solution was added to 100 μL of a solution of methanol/acetonitrile (1/1 (v/v)), mixed, and then centrifuged at 3000 rpm for 15 minutes. The test compound in the supernatant was quantitated with LC/MS/MS. The amount of the compound at a reaction time of 0 minute was defined as 100% and, based on that, the percentage of the test compound remained after reacting for 30 minutes was calculated.

Sequence of PI3Kγ (P48736 whole entry, species assumed): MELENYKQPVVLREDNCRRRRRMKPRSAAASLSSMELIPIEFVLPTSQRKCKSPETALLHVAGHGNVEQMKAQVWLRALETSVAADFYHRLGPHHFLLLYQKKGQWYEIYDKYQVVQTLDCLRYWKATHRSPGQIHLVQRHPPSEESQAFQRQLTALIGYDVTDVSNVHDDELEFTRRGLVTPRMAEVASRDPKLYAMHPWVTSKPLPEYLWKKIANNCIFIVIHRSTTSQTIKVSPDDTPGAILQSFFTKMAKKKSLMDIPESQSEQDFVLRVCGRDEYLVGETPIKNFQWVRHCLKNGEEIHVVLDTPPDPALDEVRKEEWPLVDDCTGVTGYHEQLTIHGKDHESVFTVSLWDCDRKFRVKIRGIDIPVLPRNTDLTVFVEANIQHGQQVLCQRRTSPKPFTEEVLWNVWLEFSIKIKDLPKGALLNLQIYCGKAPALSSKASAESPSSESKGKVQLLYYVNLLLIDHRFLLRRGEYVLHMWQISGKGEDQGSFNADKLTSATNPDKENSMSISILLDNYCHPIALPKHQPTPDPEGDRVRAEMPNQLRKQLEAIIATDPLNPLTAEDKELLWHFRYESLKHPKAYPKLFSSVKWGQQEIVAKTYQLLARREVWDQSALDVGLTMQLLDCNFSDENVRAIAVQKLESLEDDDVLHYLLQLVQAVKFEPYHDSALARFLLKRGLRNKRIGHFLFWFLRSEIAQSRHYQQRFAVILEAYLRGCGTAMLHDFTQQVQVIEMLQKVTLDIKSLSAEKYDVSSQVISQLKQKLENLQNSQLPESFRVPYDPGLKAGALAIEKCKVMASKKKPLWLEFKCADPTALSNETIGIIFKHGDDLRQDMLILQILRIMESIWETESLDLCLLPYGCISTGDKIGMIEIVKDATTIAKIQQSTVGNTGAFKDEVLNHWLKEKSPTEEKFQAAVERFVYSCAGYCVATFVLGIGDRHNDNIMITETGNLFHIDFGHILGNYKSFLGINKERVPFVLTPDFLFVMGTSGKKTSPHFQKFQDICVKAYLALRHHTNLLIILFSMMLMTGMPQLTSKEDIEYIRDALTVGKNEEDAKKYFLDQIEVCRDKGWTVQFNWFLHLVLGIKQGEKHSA
T2 sequence (P08684 whole entry): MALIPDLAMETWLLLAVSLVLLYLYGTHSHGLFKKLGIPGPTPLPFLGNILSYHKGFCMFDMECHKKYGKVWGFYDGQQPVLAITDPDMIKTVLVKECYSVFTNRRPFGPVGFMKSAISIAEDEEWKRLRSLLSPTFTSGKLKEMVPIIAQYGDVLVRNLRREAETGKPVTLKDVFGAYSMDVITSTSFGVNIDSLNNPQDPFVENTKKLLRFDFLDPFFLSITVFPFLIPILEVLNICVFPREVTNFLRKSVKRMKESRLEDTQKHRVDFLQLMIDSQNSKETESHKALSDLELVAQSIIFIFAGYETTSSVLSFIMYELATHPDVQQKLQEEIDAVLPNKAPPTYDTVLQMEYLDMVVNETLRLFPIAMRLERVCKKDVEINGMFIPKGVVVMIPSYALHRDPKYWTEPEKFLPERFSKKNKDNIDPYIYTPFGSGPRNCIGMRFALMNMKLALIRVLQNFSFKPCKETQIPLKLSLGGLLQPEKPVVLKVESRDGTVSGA
T1 sequence (Q12809 whole entry): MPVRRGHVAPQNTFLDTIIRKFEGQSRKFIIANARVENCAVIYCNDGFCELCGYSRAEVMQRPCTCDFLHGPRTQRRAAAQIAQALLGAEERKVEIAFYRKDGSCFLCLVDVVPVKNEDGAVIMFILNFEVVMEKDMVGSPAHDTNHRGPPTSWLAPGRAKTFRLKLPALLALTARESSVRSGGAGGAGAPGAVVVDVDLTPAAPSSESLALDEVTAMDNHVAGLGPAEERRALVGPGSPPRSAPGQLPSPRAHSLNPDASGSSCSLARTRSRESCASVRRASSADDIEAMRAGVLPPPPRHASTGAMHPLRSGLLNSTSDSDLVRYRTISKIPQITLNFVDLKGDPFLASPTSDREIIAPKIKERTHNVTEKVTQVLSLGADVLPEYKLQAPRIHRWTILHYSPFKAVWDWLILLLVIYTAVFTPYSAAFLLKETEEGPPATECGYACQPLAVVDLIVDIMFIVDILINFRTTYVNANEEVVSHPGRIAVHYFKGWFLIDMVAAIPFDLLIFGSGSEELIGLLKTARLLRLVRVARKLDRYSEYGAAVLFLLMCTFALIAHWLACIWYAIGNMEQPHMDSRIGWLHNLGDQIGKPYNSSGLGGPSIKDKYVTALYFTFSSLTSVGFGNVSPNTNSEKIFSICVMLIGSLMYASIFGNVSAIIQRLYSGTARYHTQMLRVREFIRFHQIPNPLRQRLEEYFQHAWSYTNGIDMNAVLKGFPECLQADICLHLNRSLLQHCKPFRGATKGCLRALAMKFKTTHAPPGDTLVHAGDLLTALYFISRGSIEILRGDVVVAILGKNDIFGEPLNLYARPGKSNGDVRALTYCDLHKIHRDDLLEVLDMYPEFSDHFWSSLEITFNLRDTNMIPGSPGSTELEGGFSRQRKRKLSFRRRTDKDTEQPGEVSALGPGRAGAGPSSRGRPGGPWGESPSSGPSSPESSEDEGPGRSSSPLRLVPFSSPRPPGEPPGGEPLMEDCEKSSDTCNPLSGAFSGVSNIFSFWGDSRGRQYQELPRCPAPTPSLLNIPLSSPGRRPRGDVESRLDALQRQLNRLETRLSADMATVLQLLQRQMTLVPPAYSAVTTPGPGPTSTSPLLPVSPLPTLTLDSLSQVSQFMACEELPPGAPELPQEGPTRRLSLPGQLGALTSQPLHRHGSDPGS

| Compound | inhibition at 10 min, 1 µM (hERG channel (IKr)) [%] | inhibition at 10 µM (PI3Kγ) [%] | MBI (CYP3A4) | hLMS_ox(at 0.5 μM) % [1] [%] |
| --- | --- | --- | --- | --- |
| COc1cc(N2CCc3nc(NC(=O)Nc4ccccc4C(=O)NC4CC4)sc3C2)nc(OC)n1 [Compound I-16] | 9.3 | 92 | – | – |
| COc1cc(N2CCc3nc(NC(=O)NC4=C(C(=O)NC(C)C)CCC4)sc3C2)nc(OC)n1 [Compound I-29] | 8.7 | ≥ 95 | (−) (When 3 μmol/L or less, the compound is shown as (−)) | – |
| COc1cc(N2CCc3nc(NC(=O)Nc4ccccc4C(N)=O)sc3C2)nc(OC)n1 [Compound I-35] | – | ≥ 95 | (−) (When 3 μmol/L or less, the compound is shown as (−)) | 101 |
| COc1nc(N(C)C)cc(N2CCc3nc(NC(=O)Nc4ccccc4C(=O)NC(C)C)sc3C2)n1 [Compound I-41] | 5.6 | – | – | – |
| COc1cc(N2CCc3nc(NC(=O)Nc4ccccc4OC(C)C)sc3C2)nc(OC)n1 [Compound I-48] | 3.2 | – | – | – |
| COc1nc(Cl)cc(N2CCc3nc(NC(=O)Nc4ccccc4C(=O)NC(C)C)sc3C2)n1 [Compound I-53] | 5.1 | – | (−) (When 3 μmol/L or less, the compound is shown as (−)) | – |
| COc1cc(N2CCc3nc(NC(=O)Nc4ccccc4OCCC(C)C)sc3C2)nc(OC)n1 [Compound I-55] | 7.7 | – | – | – |
| CNC(=O)c1ccccc1NC(=O)Nc1nc2c(s1)CN(c1cc(OC)nc(OC)n1)CC2 [Compound I-56] | – | – | (−) (When 3 μmol/L or less, the compound is shown as (−)) | 95.5 |
| COc1cc(N2CCc3nc(NC(=O)Nc4cc(F)ccc4C(=O)NC(C)C)sc3C2)nc(OC)n1 [Compound I-74] | – | – | (−) (When 3 μmol/L or less, the compound is shown as (−)) | 83.3 |
| COc1cc(N2CCc3nc(NC(=O)Nc4ccccc4C(=O)NC(C)C)sc3C2)cnc1OC [Compound I-80] | 5.5 | – | – | 82.1 |
| CCNC(=O)c1ccncc1NC(=O)Nc1nc2c(s1)CN(c1cc(Cl)nc(OC)n1)CC2 [Compound I-92] | 2.4 | – | – | – |
| CCNC(=O)c1ccccc1NC(=O)Nc1nc2c(s1)CN(c1cc(Cl)nc(OC)n1)CC2 [Compound I-93] | 6.8 | ≥ 95 | (−) (When 3 μmol/L or less, the compound is shown as (−)) | – |
| CCNC(=O)c1ccncc1NC(=O)Nc1nc2c(s1)CN(c1cc(OC)nc(OC)n1)CC2 [Compound I-94] | 6.8 | ≥ 95 | (−) (When 3 μmol/L or less, the compound is shown as (−)) | – |
| COc1nccc(N2CCc3nc(NC(=O)Nc4ccccc4C(=O)NC(C)C)sc3C2)n1 [Compound I-95] | 3.7 | ≥ 95 | – | – |
| COc1cc(N2CCc3nc(NC(=O)Nc4ccccc4C(=O)N[C@@H](C)CO)sc3C2)nc(OC)n1 [Compound I-101] | 9.6 | ≥ 95 | – | 91.9 |
| COc1cc(N2CCc3nc(NC(=O)Nc4ccccc4C(=O)N[C@H](C)CO)sc3C2)nc(OC)n1 [Compound I-102] | 8.8 | ≥ 95 | – | 84.2 |
| COc1cncc(-c2ccc3nc(NC(=O)Nc4ccccc4C(=O)NC(C)C)cn3n2)c1 [Compound I-111] | 2.4 | – | (−) (When 3 μmol/L or less, the compound is shown as (−)) | – |
| CCCCc1ccccc1NC(=O)Nc1nc2c(s1)CN(c1cc(OC)nc(OC)n1)CC2 [Compound I-150] | 3 | – | – | – |
| Cc1cc(N2CCc3nc(NC(=O)Nc4ccccc4C(=O)NC(C)C)sc3C2)nc(Cl)n1 [Compound I-163] | – | 83 | (−) (When 3 μmol/L or less, the compound is shown as (−)) | 90.5 |
| Cc1cc(N2CCc3nc(NC(=O)Nc4ccccc4C(=O)N[C@@H](C)CO)sc3C2)nc(Cl)n1 [Compound I-168] | – | 89 | (−) (When 3 μmol/L or less, the compound is shown as (−)) | 104 |
| Cc1cc(N2CCc3nc(NC(=O)Nc4ccccc4C(=O)N[C@@H](C)CO)sc3C2)nc(C#N)n1 [Compound I-180] | – | 89 | (−) (When 3 μmol/L or less, the compound is shown as (−)) | 92.6 |
| Cc1cc(N2CCc3nc(NC(=O)Nc4ccccc4C(=O)N[C@H](C)CO)sc3C2)nc(C#N)n1 [Compound I-185] | – | ≥ 95 | (−) (When 3 μmol/L or less, the compound is shown as (−)) | 87.6 |
